The results in this text go back to ChEMBL document CHEMBL3351616, “Synthesis and evaluation of novel benzophenone-thiazole derivatives as potent VEGF-A inhibitors” (Eur J Med Chem, 2014).

Data set [1] is described as follows: Cytotoxicity against mouse EAC cells after 48 hrs by MTT method. In kind it is functional, cell-based. As to conditions: Ehrlich. A general note: Tetrazolium assays rely on reduction of a dye to a coloured formazan, in cell work by metabolically active cells.
Data set [2] can be described thus: Cytotoxicity against mouse DLA cells after 48 hrs by trypan blue dye exclusion method. The data set is classed as functional, cell-based.
Data set [3] is described as follows: Cytotoxicity against mouse DLA cells after 48 hrs by MTT method. The data set is classed as functional, cell-based.
Data set [4] can be described thus: Cytotoxicity against mouse EAC cells after 48 hrs by LDH release assay. The data set is classed as functional, cell-based. The note with it: Ehrlich.
A short description of data set [5]: Cytotoxicity against mouse EAC cells after 48 hrs by trypan blue dye exclusion method. In kind it is functional, cell-based. As to conditions: Ehrlich.
Data set [6] is described as follows: Cytotoxicity against mouse DLA cells after 48 hrs by LDH release assay. In kind it is functional, cell-based. (Release of lactate dehydrogenase indicates damage to the cell membrane.)
The subject of data set [7] is Mus musculus. Nature of the data set: Toxicity in Swiss albino mouse assessed as change in RBC at 50 mg/kg, ip consecutively for 10 days (reference value: 4.75 +/- 2.1 x 10^6 /uL). In kind it is organism-based. Details: dose 50 mg/kg, route intraperitoneal. As to conditions: in vivo, 240 h.
For data set [8], the system named is Ehrlich. Nature of the data set: Reduction in VEGF-A protein secretion in culture media of mouse EAC cells by ELISA. In kind it is functional, cell-based. For orientation: In an ELISA, binding on a coated surface is turned into a signal by an enzyme label.
The test system of data set [9] is Mus musculus. The experiment in a line: Toxicity in Swiss albino mouse assessed as change in WBC at 50 mg/kg, ip consecutively for 10 days (reference value: […]). In kind it is organism-based. The note with it: in vivo, 240 h. The arrangement: dose 50 mg/kg, route intraperitoneal.
Data set [10] relates to Ehrlich. Nature of the data set: Antitumor activity against mouse EAC cells allografted in mouse assessed as decrease in reduction in cell count at 50 mg/kg, ip as 3 doses on day 4,6 and 8 after tumor onset measured on day 10. In kind it is functional, organism-based. Details: dose 50 mg/kg.
The test system of data set [11] is Mus musculus. Nature of the data set: Toxicity in Swiss albino mouse assessed as change in creatinine level at 50 mg/kg, ip consecutively for 10 days (reference value: 0.46 +/- 1.8 mg/dl). In kind it is organism-based. The arrangement: dose 50 mg/kg, route intraperitoneal. As to conditions: in vivo, 240 h.
Data set [12] has as its system Mus musculus. The experiment in a line: Toxicity in Swiss albino mouse assessed as change in urea level at 50 mg/kg, ip consecutively for 10 days (reference value: 51 +/- 2.6 mg/dl). In kind it is organism-based. The arrangement: dose 50 mg/kg, route intraperitoneal. The note with it: in vivo, 240 h.
For data set [13], the system named is Mus musculus. The experiment in a line: Toxicity in Swiss albino mouse assessed as change in alkaline phosphatase level at 50 mg/kg, ip consecutively for 10 days (reference value: 124.98 +/- 1.2 IU/L). The data set is classed as organism-based. The arrangement: dose 50 mg/kg, route intraperitoneal. As to conditions: in vivo, 240 h.
Data set [14] in a line: Antitumor activity against mouse EAC cells allografted in mouse assessed as reduction in VEGF-A protein secretion in tumor cells at 50 mg/kg, ip as 3 doses on day 4,6 and 8 after tumor onset by ELISA relative to control. In kind it is functional, Ehrlich. The note with it: route intraperitoneal.
A short description of data set [15]: Antitumor activity against mouse EAC cells allografted in mouse assessed as increase in lifespan at 50 mg/kg, ip as 3 doses on day 4,6 and 8 after tumor onset measured on day 10 (reference value: 10 days). As to conditions: route intraperitoneal. In kind it is functional, Ehrlich.
For data set [16], the system named is Ehrlich. Nature of the data set: Antitumor activity against mouse EAC cells allografted in mouse assessed as decrease in reduction in tumor volume at 50 mg/kg, ip as 3 doses on day 4,6 and 8 after tumor onset measured on day 10. In kind it is functional, organism-based. Details: dose 50 mg/kg.
Data set [17] relates to Ehrlich. The experiment in a line: Antitumor activity against mouse EAC cells allografted in mouse assessed as decrease in ascites fluid secretion at 50 mg/kg, ip as 3 doses on day 4,6 and 8 after tumor onset measured on day 10. The data set is classed as functional, organism-based. The arrangement: dose 50 mg/kg.
Data set [18] relates to Ehrlich. Nature of the data set: Antitumor activity against mouse EAC cells allografted in mouse assessed as reduction in VEGF-A mRNA expression in tumor cells at 50 mg/kg, ip as 3 doses on day 4,6 and 8 after tumor onset by RT-PCR analysis. In kind it is functional, organism-based. Details: dose 50 mg/kg.
In data set [19] the test system is Ehrlich. Nature of the data set: Antitumor activity against mouse EAC cells allografted in mouse assessed as zone of avascularization in peritoneum at 50 mg/kg, ip as 3 doses on day 4,6 and 8 after tumor onset measured on day 10. The data set is classed as functional, organism-based. Details: dose 50 mg/kg.
Data set [20] deals with Ehrlich. Nature of the data set: Antitumor activity against mouse EAC cells allografted in mouse assessed as reduction in VEGF-A protein expression in tumor cells at 50 mg/kg, ip as 3 doses on day 4,6 and 8 after tumor onset by immunoblot method relative to control. In kind it is functional, organism-based. The arrangement: dose 50 mg/kg.

Molecules are shown by their SMILES. pIC50: −log10 of the molar value. Activity calls are given as the source filed them. The rule behind the calls is not given here.

The pIC50 is the negative decadic logarithm of the IC50, by convention in mol/L. Read a high pIC50 as a small IC50. In the case of `Cc1cc(C(=O)c2ccc(F)cc2)ccc1OCC(=O)Nc1nc(-c2ccccc2)cs1`, the pIC50 is 4.43 in data set [1]; 4.49 in data set [2]; 4.48 in data set [3]; 4.41 in data set [4]; 4.45 in data set [5]; 4.46 in data set [6].
Turning to `O=C(COc1ccc(C(=O)c2ccccc2)cc1Br)Nc1nc(-c2ccccc2)cs1`, the pIC50 in data set [1] was 4.34; in data set [2], 4.38; in data set [3] it was 4.37; in [4], 4.33; in data set [5], 4.34; in data set [6], 4.36.
Consider `Cc1cc(C(=O)c2ccccc2C)ccc1OCC(=O)Nc1nc(-c2ccccc2)cs1`, for which the pIC50 was 4.59 in [1]; 4.65 in data set [2]; 4.64 in data set [3]; 4.58 in data set [4]; 4.61 in data set [5]; 4.63 in [6].
As for `COc1ccc(-c2csc(NC(=O)COc3ccc(C(=O)c4ccccc4)cc3C)n2)cc1`, the pIC50 in [1] was 4.55; in [2] it was 4.62; in [3] it was 4.59; in data set [4] it was 4.54; in [5] it was 4.57; in [6] it was 4.58.
`COc1ccc(-c2csc(NC(=O)COc3ccc(C(=O)c4ccc(F)cc4)cc3C)n2)cc1`: the pIC50 in [1] is 5.27; in data set [2] it was 5.30; in data set [3] it was 5.27; in [4] it was 5.24; in [5], 5.28; in [6] it was 5.26. The Activity in the data set on Mus musculus [7] is 5.13 ×10⁶ /uL; in the data set on Ehrlich [8], “Dose-dependent effect”; with Mus musculus [9], 3.89 ×10⁶ /uL; in the data set on Ehrlich [10], “Dose-dependent effect”; in the data set on Mus musculus [11], 0.44 mg/dL; with Mus musculus [12], 48 mg/dL. Further, the Activity is 129 IU/L in the data set on Mus musculus [13], “Dose-dependent effect” with Ehrlich [16] and “Dose-dependent effect” with Ehrlich [17]. Moreover, the “fold change (FC)” value in data set [14] came to 5. Further, the Survival in data set [15] worked out at 34 days. In addition, the outcome in the data set on Ehrlich [18], in the data set with Ehrlich [19] and with Ehrlich [20] was Active.
Take `O=c1[nH]cc(F)c(=O)[nH]1` [FLUOROURACIL]: the pIC50 in data set [2] is 4.82; in data set [3] it was 4.81; in [4] it was 4.81; in [5], 4.84; in data set [6], 4.77.
With `COc1ccc(-c2csc(NC(=O)COc3ccc(C(=O)c4cccc(Br)c4)cc3C)n2)cc1`, the pIC50 in data set [1] is 4.41; in data set [2], 4.45; in data set [3] it was 4.44; in [4], 4.39; in [5], 4.42; in data set [6], 4.43.
As for `COc1ccc(-c2csc(NC(=O)COc3ccc(C(=O)c4ccc(C)cc4)cc3C)n2)cc1`, the negative-log IC50 (pIC50) in data set [1] was 4.68; in [2], 4.80; in [3] it was 4.76; in data set [4], 4.68; in data set [5], 4.71; in data set [6], 4.73.
Consider `COc1ccc(-c2csc(NC(=O)COc3ccc(C(=O)c4cccc(F)c4)cc3C)n2)cc1`, for which the pIC50 in data set [1] was 4.51; in [2], 4.56; in [3] it was 4.55; in data set [4], 4.51; in data set [5], 4.53; in data set [6], 4.52.
For `Cc1cc(C(=O)c2ccccc2)ccc1OCC(=O)Nc1nc(-c2ccccc2)cs1`, the pIC50 was 4.62 in [1]; 4.67 in data set [2]; 4.65 in data set [3]; 4.61 in data set [4]; 4.65 in data set [5]; 4.64 in data set [6].
For `Cc1cc(C(=O)c2ccccc2)cc(C)c1OCC(=O)Nc1nc(-c2ccccc2)cs1`, the pIC50 in data set [1] was 4.64; in [2], 4.72; in data set [3], 4.71; in [4] it was 4.63; in [5], 4.66; in data set [6] it was 4.70.
As to `Cc1cc(C(=O)c2cccc(Br)c2)ccc1OCC(=O)Nc1nc(-c2ccccc2)cs1`, the pIC50 in data set [1] was 4.61; in [2], 4.66; in data set [3] it was 4.62; in [4] it was 4.59; in data set [5] it was 4.61; in data set [6], 4.63.
With `Cc1cc(C(=O)c2ccccc2F)ccc1OCC(=O)Nc1nc(-c2ccccc2)cs1`, the pIC50 in data set [1] was 4.78; in data set [2], 4.86; in data set [3] it was 4.83; in data set [4], 4.77; in [5], 4.81; in [6], 4.81.
In the case of `COc1ccc(-c2csc(NC(=O)COc3c(C)cc(C(=O)c4ccccc4)cc3C)n2)cc1`, the pIC50 was 4.39 in data set [1]; 4.42 in data set [2]; 4.40 in data set [3]; 4.38 in data set [4]; 4.39 in data set [5]; 4.40 in data set [6].
As to `Cc1ccc(C(=O)c2ccc(OCC(=O)Nc3nc(-c4ccccc4)cs3)c(C)c2)cc1`, the pIC50 was 4.52 in data set [1]; 4.60 in [2]; 4.58 in data set [3]; 4.52 in [4]; 4.55 in [5]; 4.57 in data set [6].
